The record followed here is PubChem BioAssay AID1996.

In brackets after ≈: the same amount, converted by molar mass.

The conditions of this data set: buffer; pH 7.4; 200.0 µM.
The compound `Cn1cc(C(=O)C(=O)N2CCOCC2)c2ccccc21` yielded a kinetic solubility greater than 40.8 µg/mL.

In turn, `CN1CCC(N(C)C(=O)c2cc(S(=O)(=O)N(C)c3ccccc3)ccc2Cl)CC1.Cl` registered a kinetic solubility greater than 70.9 µg/mL.

For the compound `O=C1NCCN1CCN1C(=O)c2ccccc2NC1c1ccccc1` (centres undefined), the solubility (kinetic) was greater than 50.5 µg/mL.

For `COc1ccccc1CCC(=O)OCC(=O)NC1CCCC1`, the kinetic solubility is greater than 45.8 µg/mL.

`CN1c2ccccc2C(=O)NC1c1ccc([N+](=O)[O-])s1` (centres undefined) registered a solubility (kinetic) of 31.2 µg/mL (≈ 108 µM).

For `CCOC(=O)c1c(N)sc(C(=O)N(CC)CC)c1C`, the solubility (kinetic) was greater than 42.7 µg/mL.

For `Cc1ccnc2nc(C(=O)OCC(=O)Nc3ccc4c(c3)OCCO4)nn12`, the solubility (kinetic) was greater than 55.4 µg/mL.

`Cc1onc(-c2ccccc2)c1C(=O)N(C)CCc1ccccn1` came in with a kinetic solubility greater than 48.2 µg/mL.

For the compound `N#Cc1ccc(S(=O)(=O)N2CCN(c3ncccn3)CC2)cc1`, the kinetic solubility worked out at 1.9 µg/mL (≈ 5.77 µM).

The compound `COC(=O)Cn1cnc2scc(-c3ccc(C)c(C)c3)c2c1=O` registered a solubility (kinetic) of 33.7 µg/mL (≈ 103 µM).

`Cc1nc(C(=O)NCC(=O)c2ccc(Cl)cc2)c(C(F)(F)F)o1`: the solubility (kinetic) came out at 8.4 µg/mL (≈ 24.2 µM).

Compound `N/C(Cc1nc2ccccc2s1)=N\O` displayed a solubility (kinetic) of 29.3 µg/mL (≈ 141 µM).

For `O=[N+]([O-])c1cc(Cl)ccc1N1CCOCC1`, the kinetic solubility was 24.4 µg/mL (≈ 101 µM).

Compound `COc1cc(C)nc(-n2nc(C)cc2OC)n1` returned a kinetic solubility greater than 35.1 µg/mL.

In the case of `COc1ccc(C(C)=O)cc1COC(=O)C1CCN(C(=O)c2ccc(Cl)cc2)CC1`, the solubility (kinetic) stood at 33.5 µg/mL (≈ 77.9 µM).

Take `Cc1ccc(CNc2ccc(N3CCOCC3)c(Cl)c2)cc1`: the kinetic solubility stood at 1.7 µg/mL (≈ 5.37 µM).

Turning to `NCCc1c[nH]c2ccc(OCc3ccccc3)cc12`, the solubility (kinetic) turned out to be 7.8 µg/mL (≈ 29.3 µM).

`O=C(CN1C(=O)NC(Cc2c[nH]c3ccccc23)C1=O)Nc1ccc(F)cc1F` (centres undefined) came in with a kinetic solubility of 19 µg/mL (≈ 47.7 µM).

Compound `O=C(O)/C(=N/NC(=O)c1ccc(Cl)cc1)c1ccccc1` came in with a solubility (kinetic) greater than 45.4 µg/mL.

Consider `COc1ccc(OCC(O)CNS(=O)(=O)c2cccc(Cl)c2)cc1` (centres undefined), for which the kinetic solubility turned out to be 51.4 µg/mL (≈ 138 µM).

`O=C(CN1C(=O)NC2(CCCCCCC2)C1=O)NCc1ccc(Cl)cc1` returned a solubility (kinetic) of 9.9 µg/mL (≈ 26.2 µM).

Regarding `CNC(=S)Nc1ccc(Cc2ccncc2)cc1`, the kinetic solubility was greater than 38.6 µg/mL.

For the compound `CSc1ncc(CN2CCN(C3CCCC3)C(CCO)C2)cn1` (centres undefined), the kinetic solubility is 42.6 µg/mL (≈ 127 µM).

On to `COc1ccc(CNC(=O)c2cc(C(C)=O)c[nH]2)cc1`, for which the kinetic solubility came to 12.9 µg/mL (≈ 47.4 µM).

`COc1ccc(CNC(=O)C2CCN(C(=O)c3ccco3)CC2)cc1` had a solubility (kinetic) of 45.8 µg/mL (≈ 134 µM).

Take `Cc1ccc(S(=O)(=O)NCCC(=O)Oc2ccc3ccc(=O)oc3c2)cc1`: the solubility (kinetic) came out at 25.5 µg/mL (≈ 65.8 µM).

The compound `CC1=C([N+](=O)[O-])C(c2ccc(O)c(O)c2)NC(=O)N1` (centres undefined) came in with a solubility (kinetic) greater than 39.8 µg/mL.

Compound `Cc1cc(-c2nnc(CCC(=O)NCc3ccc(F)c(F)c3)o2)no1` came in with a solubility (kinetic) greater than 52.2 µg/mL.

In the case of `O=C(Cc1ccc(F)cc1)NC1CCCCCC1`, the kinetic solubility was greater than 37.4 µg/mL.

In turn, `CNc1nc(-c2ccccc2)cc(C)c1S(C)(=O)=O` returned a kinetic solubility of 22.8 µg/mL (≈ 82.5 µM).

The compound `COc1ccc(C(=O)C(C)OC(=O)CNC(=O)C2CCCCC2)cc1` (centres undefined) had a kinetic solubility greater than 52.1 µg/mL.

On to `Cc1ccc(CNC(=O)CCn2c(=O)oc3ccccc32)cc1`, for which the solubility (kinetic) was 5.1 µg/mL (≈ 16.4 µM).

Consider `Clc1cccc(CNCC2CCCO2)c1Cl` (centres undefined), for which the kinetic solubility amounted to 33.3 µg/mL (≈ 128 µM).

`N#C/C(=C\c1ccncc1)c1nc2ccccc2o1`: the solubility (kinetic) stood at 12.9 µg/mL (≈ 52.2 µM).

Compound `COc1ccc(C/C(N)=N/OC(=O)c2cccs2)cc1` returned a kinetic solubility of 7.5 µg/mL (≈ 25.8 µM).

The compound `S=C(c1ccc(-c2cccc(Cl)c2)o1)N1CCCCC1` displayed a kinetic solubility of 6.1 µg/mL (≈ 19.9 µM).

On to `O=C(/C=C/c1ccc(F)cc1)N1CCCc2ccccc21`, for which the kinetic solubility was found to be 18.5 µg/mL (≈ 65.8 µM).

`CCc1ccccc1NC(=O)[C@@H]1CCC(=O)N1C1OC(=O)c2ccccc21` (some centres undefined) came in with a kinetic solubility greater than 54.7 µg/mL.

Compound `CCCN(C(=O)CSc1ccccc1C(=O)O)C1CCS(=O)(=O)C1` (centres undefined) gave a kinetic solubility greater than 55.7 µg/mL.

As to `CCCCCCCCCCCCCCCC(=O)OC(CC(=O)O)C[N+](C)(C)C.[Cl-]` (centres undefined), the kinetic solubility came out at 4.5 µg/mL.

In the case of `Cn1cnc2cc(NCc3cccs3)ccc21`, the kinetic solubility was 27.1 µg/mL (≈ 111 µM).

`O=C(Nc1cccnc1Cl)c1noc2c1CCc1ccccc1-2` had a kinetic solubility of less than 0.2 µg/mL.

On to `O=C(NCCCN1CCCC1=O)Nc1ccc([N+](=O)[O-])cc1`, for which the solubility (kinetic) is greater than 45.9 µg/mL.

In the case of `Cc1nn(CC(=O)N(C)C2(C#N)CCCCC2)c(C)c1[N+](=O)[O-]`, the kinetic solubility is greater than 47.9 µg/mL.

In the case of `Cc1cc(NC(=O)COC(=O)C2CC2)ccc1Br`, the kinetic solubility is greater than 46.8 µg/mL.

For `COC(=O)C1CCN(C(=O)COC(=O)c2ccc(N3CCCC3=O)cc2)CC1`, the solubility (kinetic) is greater than 58.3 µg/mL.

The compound `CC1=C(C(=O)OC2CCCCC2)C(c2ccc(O)cc2)NC(=O)N1` (centres undefined) came in with a solubility (kinetic) greater than 49.6 µg/mL.

Compound `O=[N+]([O-])c1ccccc1Nc1c2ccccc2nc2ccccc12` came in with a solubility (kinetic) of less than 0.2 µg/mL.

With `Cc1ccc(C(=O)Nc2cccc(NC(=O)CN3CCCCC3)c2)cc1`, the kinetic solubility amounted to 41.4 µg/mL (≈ 118 µM).

Consider `CCc1ccc(C(=O)CN2C(=O)NC3(CCc4ccccc43)C2=O)cc1` (centres undefined), for which the solubility (kinetic) was found to be 6.5 µg/mL (≈ 18.7 µM).

On to `CC(=O)Nc1cccc(OCC(=O)Nc2sccc2C(N)=O)c1`, for which the kinetic solubility was 4.9 µg/mL (≈ 14.7 µM).

The compound `CSc1ccc(CN2C(=O)NC3(CCCCCCC3)C2=O)cc1` yielded a solubility (kinetic) of 5.6 µg/mL (≈ 16.8 µM).

On to `CCOc1ccc(NC(=O)CSc2ncn[nH]2)cc1`, for which the kinetic solubility was greater than 41.7 µg/mL.

In turn, `COc1ccc(CCNC(=O)COC(=O)CCC(=O)c2cccs2)cc1OC` displayed a solubility (kinetic) greater than 60.8 µg/mL.

For `CCN(CC)CC(=O)NCC1(c2ccccc2)CCCC1`, the kinetic solubility is 40.9 µg/mL (≈ 142 µM).

In the case of `O=C(Nc1ccccc1Cl)OC1CCCCC1`, the kinetic solubility is less than 0.5 µg/mL.

Compound `O=[N+]([O-])c1cccc(-c2ccc(CN3CCCCC3)o2)c1` had a kinetic solubility of 30.5 µg/mL (≈ 107 µM).

`COc1ccccc1OCCn1c(=O)oc2ccc(C)cc21` showed a kinetic solubility of 4.2 µg/mL (≈ 14 µM).

Regarding `O=C(COC(=O)Cc1ccc(Br)cc1)Nc1ccc(Cl)cn1`, the solubility (kinetic) was 3.9 µg/mL (≈ 10.2 µM).

For the compound `COc1ccc(NC(=O)NCc2ccc(Cl)cc2)cc1`, the solubility (kinetic) was determined as 0.3 µg/mL (≈ 1.03 µM).

In turn, `CC(=O)Nc1ccc2c(c1)ncn2-c1ccc(C)cc1` had a solubility (kinetic) of 38.8 µg/mL (≈ 146 µM).

Compound `O=C(O)C1C2CCC(O2)C1C(=O)Nc1ccc(Br)cc1F` (centres undefined) showed a solubility (kinetic) greater than 53.7 µg/mL.

As for `O=C(O)c1cc(S(=O)(=O)N2CCCCC2)ccc1N1CCCC1`, the kinetic solubility is greater than 50.8 µg/mL.

`COc1ccc(-n2c(CNCCc3ccc(C)cc3)nc3ccccc3c2=O)cc1`: the kinetic solubility was found to be 45.2 µg/mL (≈ 113 µM).

Compound `COc1ccc2nc(C)cc(Nc3ccc(C)cc3)c2c1.Cl` had a solubility (kinetic) of 30.5 µg/mL.

In turn, `Cl.O=C(NCCCN1CCOCC1)C(=O)c1c[nH]c2ccccc12` had a kinetic solubility greater than 52.8 µg/mL.

The compound `Cc1cc(C(=O)NCc2cccc(Cl)c2)c2ccccc2n1` registered a kinetic solubility of 5.3 µg/mL (≈ 17.1 µM).

As for `CC(C)=CCN1CCN(CC#Cc2ccccc2)CC1CCO` (centres undefined), the solubility (kinetic) turned out to be 37.9 µg/mL (≈ 121 µM).

The compound `Cc1cccc2cc3c(nc12)-c1ccccc1C3=O` registered a kinetic solubility of less than 0.5 µg/mL.

The compound `CCc1ccc(/C=C\C(=O)N2CCCC2)cc1` returned a solubility (kinetic) of 28.3 µg/mL (≈ 123 µM).

Compound `COC(=O)/C=C1\N/C(=N\c2nc(C)cc(C)n2)N(c2ccccc2)C1=O` came in with a kinetic solubility greater than 52.7 µg/mL.

With `Cc1cc(C)nc(Nc2nc3ccccc3s2)n1`, the kinetic solubility is less than 0.1 µg/mL.

In the case of `CSc1ccccc1NC(=O)c1cc(Cl)sc1Cl`, the kinetic solubility was 1.4 µg/mL (≈ 4.4 µM).

On to `O=C(COC(=O)CCC(=O)c1ccc(F)cc1)NC1CCCCC1`, for which the kinetic solubility was greater than 50.3 µg/mL.

For orientation: kinetic solubility means solubility judged after dilution from a stock solution rather than from solid.
